Results reported in patent US8486991B2, “Enantiomerically pure phosphoindoles as HIV inhibitors” (Idenix Pharmaceuticals, Inc., priority 2006, dated 2013).
Several values for one entry are separate records, joined by “and”; a condition that tells them apart may be missing. Equal values may be shown once. Read-outs that look alike come from different tables or passages of the source.

How the values were obtained:
HIV-1 W.T. (BH10) virus = experiment: PBMC cell assay, W.T. (BH10); assay type: cell-based; details: Human immunodeficiency virus 1, PBMC
[1] = system: HIV-1 BH10 wild-type virus; experiment: microbe, parasite or virus in culture; assay type: cell-based
[2] = Cellular cytotoxicity, 4 days, MTS, H9; assay type: cell-based; details: human, Table 21, read-out: Average CC50 Values ± Standard Deviation, H9
Description: (§2) Cell viability was measured by standard MTT or MTS staining.
(§3) Following drug exposure for 4 days, cell viability was measured by MTS staining and CC50 values were determined. Drug concentrations ranged from 0.005 μM to 100 μM.

HIV-1 BH10 W.T. = experiment: Anti-HIV-1 BH10 W.T. activity in presence of HS or AAG; assay type: cell-based
[3] = system: HIV-1 K103N clinical isolates 4937 and 5002; experiment: microbe, parasite or virus in culture; assay type: cell-based; details: Human immunodeficiency virus 1, PBMC, read-out: Average EC50 Values ± Standard Deviation, K103N
[4] = biological target: human DNA polymerase beta (Homo sapiens, UniProt P06746); experiment: Human cellular DNA polymerase beta assay; assay type: biochemical; details: for IC50: DNA Pol Beta
Description: HIV RT, like other viral polymerase, shares limited structural homology with the cellular DNA polymerases responsible for normal nuclear and mitochondrial DNA synthesis and repair. This raises the formal possibility that inhibitors of HIV RT might inhibit cellular polymerases, resulting in cellular toxicity. In particular, inhibition of polymerase gamma has the potential to result in mitochondrial toxicity. The ability of Compound I and Compound III to inhibit cellular DNA polymerases was assessed using standard in vitro assays (Table 5).

[5] = Cellular cytotoxicity, 4 days, six HIV-1 host cell lines (ranges); assay type: cell-based; details: human, read-out: Mean CC50 Range
Description: as §2, §3

HIV-1 BH10 in U937 cells = experiment: Drug susceptibility assay, BH10 in U937 cells; assay type: cell-based; details: Human immunodeficiency virus 1, U-937, read-out: Average EC50 Values ± Standard Deviation, host U937, virus BH10
Description: (§1) The virus and host-cell dependency of Compound I, Compound III and control drugs was further examined in drug susceptibility assays performed across 3 different subtype B wild-type HIV-1 strains and 5 different cell lines.

[6] = Cellular cytotoxicity, 4 days, MTS, MOLT-4; assay type: cell-based; details: human, Table 21, read-out: Average CC50 Values ± Standard Deviation, MOLT-4
Description: as §2, §3

[7] = Cellular cytotoxicity, 4 days, MTS, MT-2; assay type: cell-based; details: human, Table 21, read-out: Average CC50 Values ± Standard Deviation, MT-2
Description: as §2, §3

in vitro = experiment: in vitro
Description: Cell viability was determined via MTT staining.

[8] = system: HIV-1 BH10 wild-type virus; experiment: CPE / cell protection assay, MT-4 cells, BH10 wild-type; assay type: cell-based; details: for EC50: Human immunodeficiency virus 1, MT4
Description: The activity of the compounds was also assessed with the same virus and cell type using a different assay readout based on cytopathic effect (CPE).
MT-4 cells (Source: NIH Catalog #120) were seeded onto 96-well cell culture plates (1×10^4 cells per well in 50 μL).
The final DMSO concentration in the assay was 0.5% in 120 μL. Cell cultures were then incubated at 37° C./5% CO2 for 4 days. Then, Cell Titer 96 AQueous One Solution Cell Proliferation Assay (Promega) was used to measure cell viability. Briefly, the One Solution Reagent was added directly to culture wells (20 μL/well), incubated for 5 hours, and the absorbance was recorded at 492 nm using the Sunrise Tecan Spectrophotometer.
The EC50 values were determined from the percent inhibition versus concentration data using a sigmoidal non-linear regression analysis based on four parameters with Tecan Magellan software.

[9] = Longer term cytotoxicity, 12 days, MTS, HuH7; details: human
Description: as §2
Cells were repeatedly treated with a range of drug concentrations (0.005 to 100 μM) for 9 (HeLa) or 12 days (HuH7, HepG2).

[10] = system: HIV-1 IIIB in MOLT-4 cells; experiment: Drug susceptibility assay, IIIB in MOLT-4 cells; assay type: cell-based; details: Human immunodeficiency virus 1, IIIB, MOLT-4, read-out: Average EC50 Values ± Standard Deviation, host MOLT-4, virus IIIB
Description: as §1

HIV-1 IIIB in U937 cells = experiment: Drug susceptibility assay, IIIB in U937 cells; assay type: cell-based; details: Human immunodeficiency virus 1, IIIB, U-937, read-out: Average EC50 Values ± Standard Deviation, host U937, virus IIIB
Description: as §1

[11] = Table 20, vs 10% FBS only, listed as Cmpd I

## CO[P@](=O)(c1cc(C)cc(/C=C/C#N)c1)c1c(C(N)=O)[nH]c2ccc(Cl)c(F)c12 [Compound I, (2-Carbamoyl-5-chloro-4-fluoro-1H-indol-3-yl)-[3-((E)-2-cyano-vinyl)-5-methyl-phenyl]-(R)-phosphinic acid methyl ester]
HIV-1 W.T. (BH10) virus; read-out: Average EC50 Values ± Standard Deviation, W.T. (BH10)
  EC50: 0.4 ± 0.1 nM
HIV-1 W.T. (BH10) virus; read-out: mean EC50, BH-10 strain in human PBMC
  EC50: 0.4 nM
[1]; Human immunodeficiency virus 1, MT4, 96 h, read-out: mean EC50, wild-type BH10 virus in MT-4 cells, p24 ELISA, 4 day
  EC50: 1 nM
[1]; Human immunodeficiency virus 1, MT4, read-out: Average EC50 Values ± Standard Deviation, host MT-4, virus BH10, Table 17
  EC50: 1 ± 0.4 nM
[1]; Human immunodeficiency virus 1, MT4, read-out: EC50, BH10, Example 16 comparative tables, unit inferred, several lines per compound
  EC50: 1 ± 0.5 nM
[1]; Table 7, EC50 mutant / EC50 wild-type
  Fold Change, W.T.: 1 fold
[1]; read-out: EC50, BH10, Example 16 comparative tables, unit inferred, several lines per compound
  EC50: 0.7 nM
[1]; read-out: mean EC50, wild-type BH10 virus in MT-4 cells, p24 ELISA, 4 day
  EC50: 1.2 nM
[2]
  CC50 at 4 days: 20000 ± 1600 nM
HIV-1 BH10 W.T.; Human immunodeficiency virus 1, read-out: Average EC50 Values ± Standard Deviation, 10% Fetal Bovine Serum
  EC50: 1.1 ± 0.4 nM
HIV-1 BH10 W.T.; Human immunodeficiency virus 1, read-out: Average EC50 Values ± Standard Deviation, 10% Fetal Bovine Serum + AAG
  EC50: 2.9 ± 1.2 nM
HIV-1 BH10 W.T.; Human immunodeficiency virus 1, read-out: Average EC50 Values ± Standard Deviation, 45% Human Serum
  EC50: 14.6 ± 6.3 nM
HIV-1 BH10 W.T.; Human immunodeficiency virus 1, read-out: Average EC50 Values ± Standard Deviation, 45% Human Serum + AAG
  EC50: 19 ± 1.7 nM
HIV-1 BH10 W.T.; Human immunodeficiency virus 1, read-out: mean EC50 values, 45% HS+AAG
  EC50: 19 nM
HIV-1 BH10 W.T.; Table 20
  Fold Change, 10% Fetal Bovine Serum: 1 fold
HIV-1 BH10 W.T.; Table 20, vs 10% FBS only
  Fold Change, 45% Human Serum: 15.9 ± 11.1 fold
  Fold Change, 45% Human Serum + AAG: 24.8 fold and 19.5 fold
HIV-1 BH10 W.T.; [11]
  Fold Change, 10% Fetal Bovine Serum + AAG: 2.7 ± 0.7 fold
  Fold Change, 45% Human Serum + AAG: 19.5 ± 7.6 fold
[3]
  EC50: 0.7 ± 0.3 nM
[4]; Average IC50 Values ± Standard Deviation, Table 5
  IC50: ≥ 422000 nM
[4]; Mean IC50 Values ± Standard Deviation, Table 6, N=4
  IC50: 422000 ± 150000 nM
[4]; Table 5
  Average IC50 Values ± Standard Deviation, DNA Pol Beta: did not reach an IC50
[5]
  CC50 at 4 days: 16600 to 32900 nM
HIV-1 BH10 in U937 cells
  EC50: 0.6 ± 0.2 nM
[6]
  CC50 at 4 days: 16600 ± 400 nM
[7]
  CC50 at 4 days: 23500 ± 1000 nM
In vitro
  CC50 at 3 days: 52600 nM
[8]; Cell Protection Assay tables, unit inferred, read-out: EC50, BH10
  EC50: 0.28 ± 0.072 nM
[8]; Table 8, CPE readout, read-out: Average EC50 Values ± Standard Deviation, W.T.
  EC50: 0.3 ± 0.1 nM
[8]; range over the three agents, read-out: mean EC50 values, WT BH10 virus, CPE assay
  EC50: 0.1 to 0.7 nM
[8]; Table 9, CPE
  Fold Change, W.T.: 1 fold
[9]
  CC50 at 12 days: 23500 ± 1610 nM
[10]
  EC50: 0.7 ± 0.1 nM
HIV-1 IIIB in U937 cells
  EC50: 0.5 ± 0.1 nM
